Test systems include CCRF-CEM leukemia; DU-145 prostate; HCT-116 colon; HOP-92 NSCLC; HS 578T breast; MDA-MB-435; NCI/ADR-RES ovarian; OVCAR-8 ovarian; SF-268 CNS; T-47D breast; UACC-62 melanoma.
Assay in all cases: NCI-60 cell line screen, 48 h

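These data come from cells grown in 96-well plates and exposed to compound for 48 hours at five concentrations. TGI: total growth inhibition.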 Some results are limits rather than exact numbers.

Turning to `CN1CCN(c2c(Cl)cc(Cl)c3[nH]c4ccccc4c(=O)c23)CC1`, the TGI was over 36.2 µM with CCRF-CEM leukemia; 16.6 µM in the assay with DU-145 prostate; over 42.6 µM in the assay on HCT-116 colon; 10.9 µM in the assay with HOP-92 NSCLC; 22.6 µM in the assay on HS 578T breast; 19.8 µM in the assay with MDA-MB-435. For the same compound, the TGI in the assay on NCI/ADR-RES ovarian stood at 28.9 µM; with OVCAR-8 ovarian it was 27.9 µM; in the assay with SF-268 CNS, 20.2 µM; in the assay on T-47D breast it was 38.5 µM; in the assay on UACC-62 melanoma, 18.6 µM.
On to `Cc1cccc2c1[nH]c1[nH]c(=O)[nH]c(=O)c12`, for which the TGI with CCRF-CEM leukemia, in the assay with DU-145 prostate, with HCT-116 colon, in the assay on HOP-92 NSCLC, with HS 578T breast and in the assay with MDA-MB-435 was over 100 µM each time. Besides, the TGI with NCI/ADR-RES ovarian, in the assay on OVCAR-8 ovarian, in the assay on SF-268 CNS, with T-47D breast and in the assay on UACC-62 melanoma was over 100 µM throughout.
Regarding `COc1ccc2c(c1)C(N)=C(c1ccccc1)C2=O`, the TGI was over 100 µM with CCRF-CEM leukemia; over 100 µM in the assay on DU-145 prostate; over 100 µM in the assay on HCT-116 colon; over 100 µM with HOP-92 NSCLC; 56.3 µM in the assay on HS 578T breast; over 100 µM in the assay with MDA-MB-435. Moreover, the TGI in the assay with NCI/ADR-RES ovarian, with OVCAR-8 ovarian, in the assay with SF-268 CNS, with T-47D breast and in the assay on UACC-62 melanoma was over 100 µM in each case.
For the compound `N#CC(C#N)=C1C(C#N)=C(N)NC12OCCO2`, the TGI in the assay with CCRF-CEM leukemia, with DU-145 prostate, in the assay on HCT-116 colon, in the assay with HOP-92 NSCLC, in the assay with HS 578T breast and with MDA-MB-435 was over 100 µM each time. Besides, the TGI in the assay on NCI/ADR-RES ovarian, with OVCAR-8 ovarian, in the assay on SF-268 CNS, with T-47D breast and in the assay on UACC-62 melanoma was over 100 µM throughout.
Turning to `COc1cc(/C=C/C(=O)c2c(=O)o[nH][n+]2-c2ccccc2)ccc1[O-]`, the TGI with CCRF-CEM leukemia is 3.52 µM; in the assay on DU-145 prostate, 5.72 µM; in the assay with HCT-116 colon, 5.67 µM; in the assay with HOP-92 NSCLC, 7.39 µM; in the assay with HS 578T breast, 9.6 µM; in the assay with MDA-MB-435, 9.24 µM. Further, the TGI with NCI/ADR-RES ovarian was 7.22 µM; with OVCAR-8 ovarian, 8.09 µM; in the assay on SF-268 CNS, 15.2 µM; with T-47D breast it was 11.7 µM; with UACC-62 melanoma, 13.7 µM.
Consider `c1ccc(CCNCc2ccco2)nc1`, for which the TGI with CCRF-CEM leukemia, in the assay with DU-145 prostate, in the assay with HCT-116 colon, with HOP-92 NSCLC, with HS 578T breast and in the assay with MDA-MB-435 was over 100 µM throughout. In addition, the TGI is over 100 µM in the assay on NCI/ADR-RES ovarian; over 100 µM in the assay on OVCAR-8 ovarian; over 100 µM with SF-268 CNS; over 28.5 µM with T-47D breast; over 100 µM in the assay on UACC-62 melanoma.
Consider `COc1ccc(N(C)C(=O)N(C)c2ccc([N+](=O)[O-])cc2)cc1`, for which the TGI with CCRF-CEM leukemia is over 100 µM; with DU-145 prostate, over 100 µM; with HCT-116 colon it was over 100 µM; in the assay with HOP-92 NSCLC it was over 100 µM; in the assay on HS 578T breast it was 41.3 µM; in the assay on MDA-MB-435, 18.6 µM. In addition, the TGI in the assay with NCI/ADR-RES ovarian is 68.4 µM; with OVCAR-8 ovarian, over 100 µM; in the assay on SF-268 CNS it was over 100 µM; with T-47D breast it was over 100 µM; in the assay on UACC-62 melanoma, over 100 µM.
As for `Cc1cc(C)c(P2C(=C(O[Si](C(C)C)(C(C)C)C(C)C)C(C)(C)C)C2(c2ccccc2)c2ccccc2)c(C)c1` (centres undefined), the TGI with CCRF-CEM leukemia, in the assay with DU-145 prostate, in the assay on HCT-116 colon, in the assay on HOP-92 NSCLC, in the assay on HS 578T breast and with MDA-MB-435 was over 100 µM each time. Further, the TGI in the assay on NCI/ADR-RES ovarian, in the assay on OVCAR-8 ovarian, with SF-268 CNS, in the assay on T-47D breast and in the assay with UACC-62 melanoma was over 100 µM each time.
Turning to `O=C1C=CC(=O)C(CNc2ccc(C(=O)OC34CC5CC(CC(C5)C3)C4)cc2)=C1`, the TGI in the assay on CCRF-CEM leukemia was over 20.4 µM; with DU-145 prostate it was 47.6 µM; in the assay with HCT-116 colon, 22.5 µM; in the assay with HOP-92 NSCLC it was 13.7 µM; in the assay with HS 578T breast, 10.9 µM; with MDA-MB-435, 23 µM. The TGI is 44.1 µM in the assay with NCI/ADR-RES ovarian; 56 µM in the assay on OVCAR-8 ovarian; 17.3 µM in the assay on SF-268 CNS; 6.88 µM in the assay on T-47D breast; 16.5 µM in the assay on UACC-62 melanoma.

For the origin of these results see PubChem BioAssay (NCI).
